# According to US10829499B2, “Tetracyclic heterocycle compounds useful as HIV integrase inhibitors” (MERCK SHARP & DOHME CORP., priority 2016, dated 2020):
# Like-named read-outs stand apart in the source and are kept apart here.
# System: HIV-1 (NL4-3 strain)
# Assay: Assay for Inhibition of HIV Replication (kinetic assay, MT4-gag-GFP reporter cell line; VIKING)
# Format: cell-based
# Conditions: MT4-GFP cells infected with HIV-1 NL4-3
# Summary of the method: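 MT4-gag-GFP cells infected with HIV-1 NL4-3 at low MOI for 24 h were seeded with compound (0.4% DMSO) in medium with 0%, 10% or 100% normal human serum. GFP-positive cells were counted at 24 and 48 h, and R0 was the 48 h/24 h ratio. Inhibition was scaled to DMSO and triple-drug controls, and IC50 came from 4-parameter fits.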
# [1] = 0% normal human serum (NHS), read-out: VIKING IP50 (nM) with 0% NHS
# [2] = 100% normal human serum (NHS), read-out: VIKING IP50 (nM) with 100% NHS
Compound,IC50 [1] [nM],IC50 [2] [nM]
CCNC1CC2C3OCCCN3C(=O)c3c(O)c(=O)c(C(=O)NCc4cccc(F)c4F)c1n32 (stereo not shown) [Compound 188],16.3,462
CCNC1CC2C3OCCCN3C(=O)c3c(O)c(=O)c(C(=O)NCc4cccc(F)c4F)c1n32 (stereo not shown) [Compound 189],11,3870
CCNC1CC2C3OCCCN3C(=O)c3c(O)c(=O)c(C(=O)NCc4cccc(F)c4F)c1n32 (stereo not shown) [Compound 190],5.26,66.4
CCNC1CC2C3OCCCN3C(=O)c3c(O)c(=O)c(C(=O)NCc4cccc(F)c4F)c1n32 (stereo not shown) [Compound 191],12.6,63.6
CCNC1CC2C3OCCCN3C(=O)c3c(O)c(=O)c(C(=O)NCc4cccc(F)c4F)c1n32 (stereo not shown) [Compound 192],8.76,92.3
CCNC1CC2C3OCCCN3C(=O)c3c(O)c(=O)c(C(=O)NCc4cccc(Cl)c4F)c1n32 (stereo not shown) [Compound 193],7.89,2910
CCNC1CC2C3OCCCN3C(=O)c3c(O)c(=O)c(C(=O)NCc4cccc(Cl)c4F)c1n32 (stereo not shown) [Compound 194],15.7,35.1
CCNC1CC2C3OCCCN3C(=O)c3c(O)c(=O)c(C(=O)NCc4cccc(Cl)c4F)c1n32 (stereo not shown) [Compound 195],12.4,25.7
CCNC1CC2C3OCCCN3C(=O)c3c(O)c(=O)c(C(=O)NCc4cccc(Cl)c4F)c1n32 (stereo not shown) [Compound 196],15.3,883
CCNC1CC2C3OCCCN3C(=O)c3c(O)c(=O)c(C(=O)NCc4cccc(Cl)c4F)c1n32 (stereo not shown) [Compound 197],14,15100
CCNC1CC2C3OCCCN3C(=O)c3c(O)c(=O)c(C(=O)NCc4cccc(Cl)c4F)c1n32 (stereo not shown) [Compound 198],5.29,96.9
CCNC1CC2C3OCCCN3C(=O)c3c(O)c(=O)c(C(=O)NCc4cccc(Cl)c4F)c1n32 (stereo not shown) [Compound 199],7.12,42.9
CCNC1CC2C3OCCCN3C(=O)c3c(O)c(=O)c(C(=O)NCc4cccc(Cl)c4F)c1n32 (stereo not shown) [Compound 200],10.1,67.3
CCNC1CC2C3OCCCN3C(=O)c3c(O)c(=O)c(C(=O)NCc4ccc(F)cc4F)c1n32 (stereo not shown) [Compound 201],8.98,2060
CCNC1CC2C3OCCCN3C(=O)c3c(O)c(=O)c(C(=O)NCc4ccc(F)cc4F)c1n32 (stereo not shown) [Compound 202],7.73,39.4
CCNC1CC2C3OCCCN3C(=O)c3c(O)c(=O)c(C(=O)NCc4ccc(F)cc4F)c1n32 (stereo not shown) [Compound 203],6.47,25.8
CCNC1CC2C3OCCCN3C(=O)c3c(O)c(=O)c(C(=O)NCc4ccc(F)cc4F)c1n32 (stereo not shown) [Compound 204],15.7,4830
CCNC1CC2C3OCCCN3C(=O)c3c(O)c(=O)c(C(=O)NCc4ccc(F)cc4F)c1n32 (stereo not shown) [Compound 205],11.3,116
CCNC1CC2C3OCCCN3C(=O)c3c(O)c(=O)c(C(=O)NCc4ccc(F)cc4F)c1n32 (stereo not shown) [Compound 206],7.11,51.6
CCNC1CC2C3OCCCN3C(=O)c3c(O)c(=O)c(C(=O)NCc4ccc(F)cc4F)c1n32 (stereo not shown) [Compound 207],5.21,140
